Numbers after ± are expanded uncertainties.

This note sets out measurements from the NIST ThermoML archive (doi:10.1021/acs.jced.5b00317).

The conditions of this data set: 101 kPa, Liquid, Sing-around technique in a fixed-path interferometer.

Take `O` [water]: the speed of sound turned out to be 1529.2 ± 0.77 m/s (313.15 K) and 1536.8 ± 0.78 m/s (318.15 K).
